Data published in ChEMBL document CHEMBL3734723, “Synthesis and anticancer activity of 6-heteroarylcoumarins” (2015).

Experiments:
Assay type in all cases: functional
[1] = Growth inhibition of human Caki1 cells incubated for 48 hrs by sulforhodamine B assay; settings: CAKI-1, 48 h
[2] = Cytotoxicity against human COLO205 cells assessed as cell growth at 10 uM incubated for 48 hrs by sulforhodamine B assay; settings: COLO 205, 48 h, read-out: Activity
[3] = system: MDA-MB-435; assay: Growth inhibition of human MDA-MB-435 cells incubated for 48 hrs by sulforhodamine B assay; settings: MDA-MB-435, 48 h
[4] = Cytotoxicity against human HOP62 cells assessed as cell growth at 10 uM incubated for 48 hrs by sulforhodamine B assay; settings: HOP-62, 48 h, read-out: Activity
[5] = Growth inhibition of human SF295 cells incubated for 48 hrs by sulforhodamine B assay; settings: SF-295, 48 h
[6] = Cytotoxicity against human OVCAR8 cells assessed as cell growth at 10 uM incubated for 48 hrs by sulforhodamine B assay; settings: OVCAR-8, 48 h, read-out: Activity
[7] = system: NCI-H226; assay: Cytotoxicity against human NCI-H226 cells assessed as cell growth at 10 uM incubated for 48 hrs by sulforhodamine B assay; settings: NCI-H226, 48 h, read-out: Activity
[8] = Growth inhibition of human MOLT4 cells incubated for 48 hrs by sulforhodamine B assay; settings: MOLT-4, 48 h
[9] = system: SR; assay: Growth inhibition of human SR cells incubated for 48 hrs by sulforhodamine B assay
[10] = Cytotoxicity against human BT549 cells assessed as cell growth at 10 uM incubated for 48 hrs by sulforhodamine B assay; settings: BT-549, 48 h, read-out: Activity
[11] = Growth inhibition of human HL-60(TB) cells incubated for 48 hrs by sulforhodamine B assay; settings: HL-60, 48 h
[12] = system: SK-MEL-2; assay: Cytotoxicity against human SK-MEL-2 cells assessed as cell growth at 10 uM incubated for 48 hrs by sulforhodamine B assay; settings: SK-MEL-2, 48 h, read-out: Activity
[13] = system: NCI-H322M; assay: Cytotoxicity against human NCI-H322M cells assessed as cell growth at 10 uM incubated for 48 hrs by sulforhodamine B assay; settings: read-out: Activity
[14] = Growth inhibition of human OVCAR4 cells incubated for 48 hrs by sulforhodamine B assay; settings: OVCAR-4, 48 h
[15] = Cytotoxicity against human HCC2998 cells assessed as cell growth at 10 uM incubated for 48 hrs by sulforhodamine B assay; settings: HCC 2998, 48 h, read-out: Activity
[16] = system: SK-MEL-28; assay: Cytotoxicity against human SK-MEL-28 cells assessed as cell growth at 10 uM incubated for 48 hrs by sulforhodamine B assay; settings: SK-MEL-28, 48 h, read-out: Activity
[17] = system: K562; assay: Growth inhibition of human K562 cells incubated for 48 hrs by sulforhodamine B assay; settings: K562, 48 h
[18] = read-out: LC50 (the source's name)

Cc1cc(=O)oc2c(C)c(O)c(-c3ccnc(N)n3)cc12 gave a GI50 [1] of 3.95 µM, a TGI [1] greater than 100 µM and a CC50 [1, 18] greater than 100 µM. For the same compound, the growth at 10 µM [2] was 46.9%, the GI50 [3] was greater than 100 µM and the TGI [3] was greater than 100 µM. It also gave a CC50 [3, 18] greater than 100 µM, a growth at 10 µM [4] of 67.8% and a GI50 [5] of 8.74 µM. For the same compound, the TGI [5] was greater than 100 µM, the CC50 [5, 18] was greater than 100 µM and the growth at 10 µM [6] was 48%. It also gave a growth at 10 µM [7] of 52.3%.

For Cc1cc(=O)oc2c(C)c(O)c(-c3cc4ccc(F)cc4[nH]3)cc12, the GI50 [8] was 3.27 µM, the TGI [8] was 15 µM and the CC50 [8, 18] was greater than 100 µM. For the same compound, the GI50 [9] was 3.24 µM, the TGI [9] was 16.9 µM and the CC50 [9, 18] was greater than 100 µM. For the same compound, the growth at 10 µM [10] was 47.6%, the GI50 [11] was 2.96 µM and the TGI [11] was 9.69 µM. It also gave a CC50 [11, 18] greater than 100 µM, a growth at 10 µM [12] of 19.5% and a growth at 10 µM [13] of 53.4%. The GI50 [14] was 3.99 µM, the TGI [14] was 32.9 µM and the CC50 [14, 18] was greater than 100 µM. For the same compound, the growth at 10 µM [15] was 24.9%, the growth at 10 µM [16] was 55.3% and the GI50 [17] was 2.68 µM. For the same compound, the TGI [17] was 23 µM and the CC50 [17, 18] was greater than 100 µM.
